Like-named read-outs stand apart in the source and are kept apart here.
Tests used:
[1] = target: T1, c-Met (cytoplasmic domain) (Homo sapiens, UniProt P08581); assay: c-Met Kinase Assay (same methods as for ALK, with modifications); assay type: biochemical
T1 construct: 10 ng/mL c-Met (cytoplasmic domain, Invitrogen Corporation #PV3143); purchased Invitrogen Corporation PV3143
In short: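 Steps: coat wells with PLC-γ (10 μg/mL, Tris-buffered saline); add 10 ng/mL c-Met cytoplasmic domain to initiate; incubate 15 min, 37° C; detect phosphoproduct via Eu-N1 PT66 antibody.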

[2] = target: T2, baculovirus-expressed ALK (Homo sapiens, UniProt Q9UM73); assay: ALK Kinase Assay (ELISA-type, time-resolved fluorescence); assay type: biochemical
T2 construct: host or cells: baculovirus expression system
In short: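 Wells were coated with phospholipase C-γ at 10 μg/mL in Tris-buffered saline. Adding 30 ng/ml enzyme started the reaction, which ran at 37° C for 15 minutes before Eu-N1 PT66 antibody detection. Percent inhibition versus log10 concentration gave IC50 by variable-slope fit.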

[3] = 1 μM ATP (Km level), read-out: cMet Activity (c-Met Kinase Inhibition, IC50)
[4] = 1 μM ATP (Km level), read-out: ALK Activity (ALK Kinase Inhibition, IC50)
[5] = c-Met kinase inhibition, 1 μM ATP, read-out: cMet Activity
[6] = ALK kinase inhibition, 1 μM ATP, read-out: ALK Activity
[7] = c-Met kinase inhibition, 1 μM ATP (Km level), read-out: cMet Activity
[8] = ALK kinase inhibition, 1 μM ATP (Km level), read-out: ALK Activity
[9] = 1 μM ATP (Km level), 10 ng/mL c-Met, read-out: cMet Activity (c-Met kinase inhibition, IC50 class)
[10] = 1 μM ATP (Km level), 30 ng/ml ALK, 37° C., 15 minutes, read-out: ALK Activity (ALK kinase inhibition, IC50 class)

T2 sequence (Q9UM73 19-1620): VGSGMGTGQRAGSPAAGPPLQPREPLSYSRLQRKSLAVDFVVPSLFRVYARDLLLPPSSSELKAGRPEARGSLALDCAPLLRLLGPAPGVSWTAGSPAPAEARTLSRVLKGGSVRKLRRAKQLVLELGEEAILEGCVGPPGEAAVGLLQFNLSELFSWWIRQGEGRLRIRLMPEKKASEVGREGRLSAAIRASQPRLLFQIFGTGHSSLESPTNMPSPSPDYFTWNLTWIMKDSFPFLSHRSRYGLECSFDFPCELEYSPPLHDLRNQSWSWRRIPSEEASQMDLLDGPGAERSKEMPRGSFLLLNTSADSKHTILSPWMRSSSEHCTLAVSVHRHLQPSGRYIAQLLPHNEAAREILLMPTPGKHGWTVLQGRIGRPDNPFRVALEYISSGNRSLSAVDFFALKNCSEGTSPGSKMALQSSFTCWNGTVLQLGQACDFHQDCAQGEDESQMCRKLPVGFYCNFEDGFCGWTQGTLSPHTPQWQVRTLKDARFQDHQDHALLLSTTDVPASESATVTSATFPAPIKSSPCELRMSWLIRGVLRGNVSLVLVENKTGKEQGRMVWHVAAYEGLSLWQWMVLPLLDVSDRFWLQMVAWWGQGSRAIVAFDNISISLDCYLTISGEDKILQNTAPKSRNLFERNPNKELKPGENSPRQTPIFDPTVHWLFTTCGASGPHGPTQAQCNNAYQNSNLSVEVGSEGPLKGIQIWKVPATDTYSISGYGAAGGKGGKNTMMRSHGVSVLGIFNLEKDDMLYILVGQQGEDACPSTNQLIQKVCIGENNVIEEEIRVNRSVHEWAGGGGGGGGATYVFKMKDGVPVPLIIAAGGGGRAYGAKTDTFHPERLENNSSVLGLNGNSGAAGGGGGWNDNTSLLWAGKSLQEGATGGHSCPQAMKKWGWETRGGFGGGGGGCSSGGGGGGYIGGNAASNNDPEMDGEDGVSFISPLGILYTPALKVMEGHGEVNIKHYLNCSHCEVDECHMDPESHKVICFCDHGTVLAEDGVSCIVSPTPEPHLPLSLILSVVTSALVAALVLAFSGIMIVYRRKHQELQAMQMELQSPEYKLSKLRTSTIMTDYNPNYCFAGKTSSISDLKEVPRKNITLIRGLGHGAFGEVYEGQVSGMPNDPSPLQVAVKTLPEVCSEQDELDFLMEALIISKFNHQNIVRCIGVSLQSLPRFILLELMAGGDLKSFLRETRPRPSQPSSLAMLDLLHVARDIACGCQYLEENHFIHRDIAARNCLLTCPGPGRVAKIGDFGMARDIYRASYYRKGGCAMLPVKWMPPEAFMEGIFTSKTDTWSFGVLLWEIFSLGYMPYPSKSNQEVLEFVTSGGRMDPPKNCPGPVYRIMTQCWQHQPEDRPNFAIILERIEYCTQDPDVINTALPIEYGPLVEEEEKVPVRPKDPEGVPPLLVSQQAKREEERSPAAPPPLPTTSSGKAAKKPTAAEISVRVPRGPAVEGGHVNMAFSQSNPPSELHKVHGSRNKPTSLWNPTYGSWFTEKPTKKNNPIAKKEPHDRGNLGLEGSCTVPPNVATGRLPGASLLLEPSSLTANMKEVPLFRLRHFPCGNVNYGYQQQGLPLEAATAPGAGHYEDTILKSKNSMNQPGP
T1 sequence (P08581 956-1390 limits assumed): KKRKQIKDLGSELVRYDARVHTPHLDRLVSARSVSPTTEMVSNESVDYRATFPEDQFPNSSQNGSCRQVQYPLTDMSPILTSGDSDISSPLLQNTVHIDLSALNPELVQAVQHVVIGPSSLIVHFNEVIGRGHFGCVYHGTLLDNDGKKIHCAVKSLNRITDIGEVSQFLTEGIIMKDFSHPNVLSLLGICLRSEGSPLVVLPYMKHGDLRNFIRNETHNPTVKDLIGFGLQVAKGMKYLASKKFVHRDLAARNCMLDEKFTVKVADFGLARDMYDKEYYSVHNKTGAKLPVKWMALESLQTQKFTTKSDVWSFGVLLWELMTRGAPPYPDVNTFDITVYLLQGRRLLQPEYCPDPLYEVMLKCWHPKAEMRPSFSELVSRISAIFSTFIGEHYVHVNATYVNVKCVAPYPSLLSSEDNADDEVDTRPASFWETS

## CNC(=O)c1ccccc1Nc1nc(Nc2cc3c(cc2OC)CCN(CC(F)F)CC3)ncc1Cl [Example 766, 2-{5-Chloro-2-[3-(2,2-difluoro-ethyl)-8-methoxy-2,3,4,5-tetrahydro-1H-benzo[d]azepin-7-ylamino]-pyrimidin-4-ylamino}-N-methyl-benzamide]
[1]; [3]
  IC50: 1000 to 10000 nM
[2]; [4]
  IC50: < 100 nM

## COCCN(C)C1CCc2ccc(Nc3ncc(Cl)c(N[C@@H]4CCCC[C@H]4NS(C)(=O)=O)n3)c(OC)c2CC1 (stereo partly drawn) [Example 702, N-[(1R,2R)-2-(5-Chloro-2-{1-methoxy-7-[(2-methoxy-ethyl)-methyl-amino]-6,7,8,9-tetrahydro-5H-benzocyclohepten-2-ylamino}-pyrimidin-4-ylamino)-cyclohexyl]-methanesulfonamide]
[1]; [3]
  IC50: > 10000 nM
[2]; [4]
  IC50: < 100 nM

## CNC(=O)c1ccc2c(c1Nc1nc(Nc3ccc4c(c3)NC(=O)CCC4(C)C)ncc1Cl)OCO2 [Example 1481, 4-[5-Chloro-2-(5,5-dimethyl-2-oxo-2,3,4,5-tetrahydro-1H-benzo[b]azepin-8-ylamino)-pyrimidin-4-ylamino]-benzo[1,3]dioxole-5-carboxylic acid methyl amide]
[1]; [5]
  IC50: 100 to 1000 nM
[2]; [6]
  IC50: 100 to 1000 nM

## CC1(C)CCCN(C(=O)CN2CCCC2)c2cc(Nc3ncc(Cl)c(N[C@H]4[C@@H](C(N)=O)[C@@H]5C=C[C@H]4C5)n3)ccc21 [Example 1607, (1S,2S,3R,4R)-3-{5-Chloro-2-[5,5-dimethyl-1-(2-pyrrolidin-1-yl-acetyl)-2,3,4,5-tetrahydro-1H-benzo[b]azepin-8-ylamino]-pyrimidin-4-ylamino}-bicyclo[2.2.1]hept-5-ene-2-carboxylic acid amide]
[1]; [5]
  IC50: 100 to 1000 nM
[2]; [6]
  IC50: < 100 nM

## CNC(=O)c1ccccc1Nc1nc(Nc2ccc3c(c2)NC(=O)CN(CCOC)C3)ncc1Cl [Example 1864, 2-{5-Chloro-2-[4-(2-methoxy-ethyl)-2-oxo-2,3,4,5-tetrahydro-1H-benzo[e][1,4]diazepin-8-ylamino]-pyrimidin-4-ylamino}-N-methyl-benzamide]
[1]; [5]
  IC50: < 100 nM
[2]; [6]
  IC50: < 100 nM

## CNC(=O)c1ccccc1Nc1nc(Nc2ccc3c(c2)N(C)CCCO3)ncc1Cl [Example 1708, 2-[5-Chloro-2-(9-methyl-6,7,8,9-tetrahydro-5-oxa-9-aza-benzocyclohepten-2-ylamino)-pyrimidin-4-ylamino]-N-methyl-benzamide]
[1]; [5]
  IC50: < 100 nM
[2]; [6]
  IC50: < 100 nM

## COc1cc(N2CCOCC2)ccc1Nc1nc(Nc2ccc3c(c2)CCN(C[C@H](O)C(F)(F)F)CC3)ncc1Cl [Example 330, (S)-3-{7-[5-Chloro-4-(2-methoxy-4-morpholin-4-yl-phenylamino)-pyrimidin-2-ylamino]-1,2,4,5-tetrahydro-benzo[d]azepin-3-yl}-1,1,1-trifluoro-propan-2-ol]
[1]; [7]
  IC50: > 10000 nM
[2]; [8]
  IC50: < 100 nM

## CNS(=O)(=O)c1ccccc1Nc1nc(Nc2cccc3c2N(C)CCN(C)C3=O)ncc1Cl [Example 543, 2-[5-Chloro-2-(1,4-dimethyl-5-oxo-2,3,4,5-tetrahydro-1H-benzo[e][1,4]diazepin-9-ylamino)-pyrimidin-4-ylamino]-N-methyl-benzenesulfonamide]
[1]; [3]
  IC50: > 10000 nM
[2]; [4]
  IC50: 1000 to 10000 nM

## CCN1CCCC(C)(C)c2ccc(Nc3ncc(Cl)c(Nc4ccc(N5CCOCC5)cc4OC)n3)cc21 [Example 1635, 5-Chloro-N*2*-(1-ethyl-5,5-dimethyl-2,3,4,5-tetrahydro-1H-benzo[b]azepin-8-yl)-N*4*-(2-methoxy-4-morpholin-4-yl-phenyl)-pyrimidine-2,4-diamine]
[1]; [5]
  IC50: > 10000 nM
[2]; [6]
  IC50: 100 to 1000 nM

## CCN1CCc2ccc(OC)c(Nc3ncc(Cl)c(Nc4ccccc4S(=O)(=O)NC)n3)c2CC1 [Example 49, 2-[5-Chloro-2-(3-ethyl-7-methoxy-2,3,4,5-tetrahydro-1H-benzo[d]azepin-6-ylamino)-pyrimidin-4-ylamino]-N-methyl-benzenesulfonamide]
[1]; [7]
  IC50: > 10000 nM
[2]; [8]
  IC50: < 100 nM

## CCN1C(=O)CCCc2c1ccc(Nc1ncc(Cl)c(NC3C4C=CC(C4)C3C(N)=O)n1)c2OC (stereo not drawn) [Example 121, (2-exo,3-exo)-3-[5-Chloro-2-(1-ethyl-6-methoxy-2-oxo-2,3,4,5-tetrahydro-1H-benzo[b]azepin-7-ylamino)-pyrimidin-4-ylamino]-bicyclo[2.2.1]hept-5-ene-2-carboxylic acid amide]
[1]; [7]
  IC50: > 10000 nM
[2]; [8]
  IC50: < 100 nM

## CNC(=O)c1ccccc1Nc1nc(Nc2c(OC)ccc3c2CCC(N2CCOCC2)CC3)ncc1Cl (stereo not drawn) [Example 1073, 2-[5-Chloro-2-(2-methoxy-7-morpholin-4-yl-6,7,8,9-tetrahydro-5H-benzocyclohepten-1-ylamino)-pyrimidin-4-ylamino]-N-methyl-benzamide]
[1]; [9]
  IC50: > 10000 nM
[2]; [10]
  IC50: 100 to 1000 nM

## NC(=O)[C@@H]1[C@H](Nc2nc(Nc3ccc4c(c3)CCC(NCC(F)F)CC4)ncc2Cl)[C@H]2C=C[C@@H]1C2 (stereo partly drawn) [Example 665, (1S,2S,3R,4R)-3-{5-Chloro-2-[7-(2,2-difluoro-ethylamino)-6,7,8,9-tetrahydro-5H-benzocyclohepten-2-ylamino]-pyrimidin-4-ylamino}-bicyclo[2.2.1]hept-5-ene-2-carboxylic acid amide]
[1]; [3]
  IC50: 100 to 1000 nM
[2]; [4]
  IC50: < 100 nM

## COCCN1CCc2cc(Nc3ncc(Cl)c(Nc4ccccc4S(=O)(=O)N(C)C)n3)c(OC)cc2CC1 [Example 1165, 2-{5-Chloro-2-[8-methoxy-3-(2-methoxy-ethyl)-2,3,4,5-tetrahydro-1H-benzo[d]azepin-7-ylamino]-pyrimidin-4-ylamino}-N,N-dimethyl-benzenesulfonamide]
[1]; [9]
  IC50: 1000 to 10000 nM
[2]; [10]
  IC50: < 100 nM

## CN1C(=O)CCCc2cc(Nc3ncc(Cl)c(Nc4ccccc4-c4nccn4C)n3)ccc21 [Example 995, 7-{5-Chloro-4-[2-(1-methyl-1H-imidazol-2-yl)-phenylamino]-pyrimidin-2-ylamino}-1-methyl-1,3,4,5-tetrahydro-benzo[b]azepin-2-one]
[1]; [3]
  IC50: 100 to 1000 nM
[2]; [4]
  IC50: < 100 nM

## CN1Cc2cc(Nc3ncc(Cl)c(Nc4ccccc4OCC#N)n3)ccc2CCC1=O [Example 1810, {2-[5-Chloro-2-(2-methyl-3-oxo-2,3,4,5-tetrahydro-1H-benzo[c]azepin-8-ylamino)-pyrimidin-4-ylamino]-phenoxy}-acetonitrile]
[1]; [5]
  IC50: < 100 nM
[2]; [6]
  IC50: < 100 nM

## COCCN1CCc2ccc(Nc3ncc(Cl)c(N[C@@H]4CCCC[C@H]4NS(C)(=O)=O)n3)cc2CC1 [Example 36, N-((1R,2R)-2-{5-Chloro-2-[3-(2-methoxy-ethyl)-2,3,4,5-tetrahydro-1H-benzo[d]azepin-7-ylamino]-pyrimidin-4-ylamino}-cyclohexyl)-methanesulfonamide]
[1]; [7]
  IC50: 1000 to 10000 nM
[2]; [8]
  IC50: < 100 nM

## C#CCN1CCc2ccc(Nc3ncc(Cl)c(Nc4ccccc4NS(C)(=O)=O)n3)cc2CC1 [Example 326, N-{2-[5-Chloro-2-(3-prop-2-ynyl-2,3,4,5-tetrahydro-1H-benzo[d]azepin-7-ylamino)-pyrimidin-4-ylamino]-phenyl}-methanesulfonamide]
[1]; [7]
  IC50: 100 to 1000 nM
[2]; [8]
  IC50: < 100 nM

## CC1(C)CCC(=O)Nc2ccc(Nc3ncc(Cl)c(Nc4ccccc4-c4nccs4)n3)cc21 [Example 978, 7-[5-Chloro-4-(2-thiazol-2-yl-phenylamino)-pyrimidin-2-ylamino]-5,5-dimethyl-1,3,4,5-tetrahydro-benzo[b]azepin-2-one]
[1]; [3]
  IC50: > 10000 nM
[2]; [4]
  IC50: < 100 nM

## CS(=O)(=O)Nc1ccccc1Nc1nc(Nc2ccc3c(c2)CNCCS3)ncc1Cl [Example 518]
[1]; [3]
  IC50: 1000 to 10000 nM
[2]; [4]
  IC50: < 100 nM

## COc1cc2c(cc1Nc1ncc(Cl)c(Nc3ccccc3S(=O)(=O)C(C)C)n1)CCC(NCC(F)F)CC2 (stereo not drawn) [Example 1056, 5-Chloro-N*2*-[7-(2,2-difluoro-ethylamino)-3-methoxy-6,7,8,9-tetrahydro-5H-benzocyclohepten-2-yl]-N*4*-[2-(propane-2-sulfonyl)-phenyl]-pyrimidine-2,4-diamine]
[1]; [9]
  IC50: 1000 to 10000 nM
[2]; [10]
  IC50: < 100 nM

## CNc1nc(OC)ccc1Nc1nc(Nc2cc3c(cc2OC)CCN(CC(=O)N(C)C)CC3)ncc1Cl [Example 1208, 2-{7-[5-Chloro-4-(6-methoxy-2-methylamino-pyridin-3-ylamino)-pyrimidin-2-ylamino]-8-methoxy-1,2,4,5-tetrahydro-benzo[d]azepin-3-yl}-N,N-dimethyl-acetamide]
[1]; [9]
  IC50: > 10000 nM
[2]; [10]
  IC50: < 100 nM

## COCCOc1ccc(Nc2nc(Nc3cc4c(cc3OC)CCN(Cc3ncco3)CC4)ncc2Cl)c(OC)c1 [Example 1174, 5-Chloro-N*4*-[2-methoxy-4-(2-methoxy-ethoxy)-phenyl]-N*2*-(8-methoxy-3-oxazol-2-ylmethyl-2,3,4,5-tetrahydro-1H-benzo[d]azepin-7-yl)-pyrimidine-2,4-diamine]
[1]; [9]
  IC50: > 10000 nM
[2]; [10]
  IC50: < 100 nM

## CNC(=O)c1cc(OC)ccc1Nc1nc(Nc2ccc3c(c2)C(C)(C)CCC(=O)N3)ncc1Cl [Example 609, 2-[5-Chloro-2-(5,5-dimethyl-2-oxo-2,3,4,5-tetrahydro-1H-benzo[b]azepin-7-ylamino)-pyrimidin-4-ylamino]-5-methoxy-N-methyl-benzamide]
[1]; [3]
  IC50: 100 to 1000 nM
[2]; [4]
  IC50: < 100 nM

From patent US8148391B2 (Cephalon, Inc., priority 2006, dated 2012)
